How the values were obtained:
Assay in all cases: NanoBRET K192
Type in all cases: cell-based
FGFR2 = molecular target: T1, FGFR2 (Homo sapiens, UniProt P21802); settings: HEK293
T1 construct: host or cells: HEK293
Summary of the method: (§1)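 HEK293 cells were transfected overnight with NanoLuc–kinase fusion vectors, then treated for 2 h at 37 °C with compound (added as 100 μM working solution) plus K10 tracer. BRET was read at 450/610 nm after substrate and extracellular inhibitor, and fractional occupancy was calculated against no-compound controls.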

TLK1 = molecular target: T2, TLK1 (Homo sapiens, UniProt Q9UKI8); settings: HEK293
T2 construct: host or cells: HEK293
Summary of the method: as §1

CDKL3 = molecular target: T3, CDKL3 (Homo sapiens, UniProt Q8IVW4); settings: HEK293
T3 construct: purchased Promega (NanoBRET Target Engagement K192 Kinase Selectivity System)
Summary of the method: as §1

PAK4 = molecular target: T4, PAK4 (Homo sapiens, UniProt O96013); settings: HEK293
T4 construct: purchased Promega (NanoBRET Target Engagement K192 Kinase Selectivity System)
Summary of the method: as §1

MYLK4 = molecular target: T5, MYLK4 (Homo sapiens, UniProt Q86YV6); settings: HEK293
T5 construct: purchased Promega (NanoBRET Target Engagement K192 Kinase Selectivity System)
Summary of the method: as §1

SGK1 = molecular target: T6, SGK1 (Homo sapiens, UniProt O00141); settings: HEK293
T6 construct: purchased Promega (NanoBRET Target Engagement K192 Kinase Selectivity System)
Summary of the method: as §1

CDK9 + K = molecular target: T7, CDK9 + K (Homo sapiens, UniProt P50750); settings: HEK293
T7 construct: purchased Promega (NanoBRET Target Engagement K192 Kinase Selectivity System)
Summary of the method: as §1

STK38L = molecular target: T8, STK38L (Homo sapiens, UniProt Q9Y2H1); settings: HEK293
T8 construct: purchased Promega (NanoBRET Target Engagement K192 Kinase Selectivity System)
Summary of the method: as §1

DYRK1B = molecular target: T9, DYRK1B (Homo sapiens, UniProt Q9Y463); settings: HEK293
T9 construct: purchased Promega (NanoBRET Target Engagement K192 Kinase Selectivity System)
Summary of the method: as §1

MAP3K4 = molecular target: T10, MAP3K4 (Homo sapiens, UniProt Q9Y6R4); settings: HEK293
T10 construct: purchased Promega (NanoBRET Target Engagement K192 Kinase Selectivity System)
Summary of the method: as §1

MAP3K2 = molecular target: T11, MAP3K2 (Homo sapiens, UniProt Q9Y2U5); settings: HEK293
T11 construct: purchased Promega (NanoBRET Target Engagement K192 Kinase Selectivity System)
Summary of the method: as §1

FES = molecular target: T12, FES (Homo sapiens, UniProt P07332); settings: HEK293
T12 construct: purchased Promega (NanoBRET Target Engagement K192 Kinase Selectivity System)
Summary of the method: as §1

RET = molecular target: T13, RET (Homo sapiens, UniProt P07949); settings: HEK293
T13 construct: purchased Promega (NanoBRET Target Engagement K192 Kinase Selectivity System)
Summary of the method: as §1

MUSK = molecular target: T14, MUSK (Homo sapiens, UniProt O15146); settings: HEK293
T14 construct: purchased Promega (NanoBRET Target Engagement K192 Kinase Selectivity System)
Summary of the method: as §1

PHKG1 = molecular target: T15, PHKG1 (Homo sapiens, UniProt Q16816)
T15 construct: purchased Promega (NanoBRET Target Engagement K192 Kinase Selectivity System)
Summary of the method: as §1

DYRK1A = molecular target: T16, DYRK1A (Homo sapiens, UniProt Q13627)
T16 construct: purchased Promega (NanoBRET Target Engagement K192 Kinase Selectivity System)
Summary of the method: as §1

MAPK4 = molecular target: T17, MAPK4 (Homo sapiens, UniProt P31152); settings: HEK293
T17 construct: purchased Promega (NanoBRET Target Engagement K192 Kinase Selectivity System)
Summary of the method: as §1

DCLK3 = molecular target: T18, DCLK3 (Homo sapiens, UniProt Q9C098); settings: HEK293
T18 construct: purchased Promega (NanoBRET Target Engagement K192 Kinase Selectivity System)
Summary of the method: as §1

TIE1 = molecular target: T19, TIE1 (Homo sapiens, UniProt P35590); settings: HEK293
T19 construct: purchased Promega (NanoBRET Target Engagement K192 Kinase Selectivity System)
Summary of the method: as §1

LATS1 = molecular target: T20, LATS1 (Homo sapiens, UniProt O95835); settings: HEK293
T20 construct: purchased Promega (NanoBRET Target Engagement K192 Kinase Selectivity System)
Summary of the method: as §1

MELK = molecular target: T21, MELK (Homo sapiens, UniProt Q14680); settings: HEK293
T21 construct: purchased Promega (NanoBRET Target Engagement K192 Kinase Selectivity System)
Summary of the method: as §1

MAP4K3 = molecular target: T22, MAP4K3 (Homo sapiens, UniProt Q8IVH8); settings: HEK293
T22 construct: purchased Promega (NanoBRET Target Engagement K192 Kinase Selectivity System)
Summary of the method: as §1

NIM1K = molecular target: T23, NIM1K (Homo sapiens, UniProt Q8IY84); settings: HEK293
T23 construct: host or cells: HEK293
Summary of the method: as §1

IRAK4 = molecular target: T24, IRAK4 (Homo sapiens, UniProt Q9NWZ3); settings: HEK293
T24 construct: purchased Promega (NanoBRET Target Engagement K192 Kinase Selectivity System)
Summary of the method: as §1

MET = molecular target: T25, MET (Homo sapiens, UniProt P08581); settings: HEK293
T25 construct: purchased Promega (NanoBRET Target Engagement K192 Kinase Selectivity System)
Summary of the method: as §1

CLK4 = molecular target: T26, CLK4 (Homo sapiens, UniProt Q9HAZ1)
T26 construct: expressed in transfected cells; host or cells: HEK293
Summary of the method: as §1

TLK2 = molecular target: T27, TLK2 (Homo sapiens, UniProt Q86UE8); settings: HEK293
T27 construct: purchased Promega (NanoBRET Target Engagement K192 Kinase Selectivity System)
Summary of the method: as §1

T15 sequence (Q16816 whole entry): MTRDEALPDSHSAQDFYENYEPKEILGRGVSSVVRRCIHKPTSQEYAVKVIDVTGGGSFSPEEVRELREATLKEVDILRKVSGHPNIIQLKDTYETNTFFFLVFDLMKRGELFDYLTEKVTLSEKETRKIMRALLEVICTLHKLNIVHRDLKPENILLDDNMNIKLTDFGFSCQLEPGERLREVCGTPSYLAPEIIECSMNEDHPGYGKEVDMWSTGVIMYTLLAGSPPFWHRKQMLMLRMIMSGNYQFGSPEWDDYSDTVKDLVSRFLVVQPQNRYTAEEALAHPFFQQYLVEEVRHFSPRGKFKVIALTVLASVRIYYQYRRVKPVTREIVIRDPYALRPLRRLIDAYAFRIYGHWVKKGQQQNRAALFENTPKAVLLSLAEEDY
T26 sequence (Q9HAZ1 whole entry): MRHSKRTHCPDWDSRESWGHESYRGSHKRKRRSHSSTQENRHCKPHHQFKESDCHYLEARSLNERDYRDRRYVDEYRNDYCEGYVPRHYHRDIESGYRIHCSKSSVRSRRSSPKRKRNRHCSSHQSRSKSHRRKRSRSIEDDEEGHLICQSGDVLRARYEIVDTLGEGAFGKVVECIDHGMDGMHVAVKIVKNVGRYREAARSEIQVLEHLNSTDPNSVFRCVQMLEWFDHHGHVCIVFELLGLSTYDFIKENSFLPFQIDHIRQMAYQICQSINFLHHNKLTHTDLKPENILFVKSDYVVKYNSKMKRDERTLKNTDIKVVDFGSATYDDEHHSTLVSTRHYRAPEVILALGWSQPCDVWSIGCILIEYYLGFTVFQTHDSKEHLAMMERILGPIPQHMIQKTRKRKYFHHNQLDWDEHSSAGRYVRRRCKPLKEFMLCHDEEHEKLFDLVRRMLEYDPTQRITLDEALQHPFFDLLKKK
T18 sequence (Q9C098 whole entry): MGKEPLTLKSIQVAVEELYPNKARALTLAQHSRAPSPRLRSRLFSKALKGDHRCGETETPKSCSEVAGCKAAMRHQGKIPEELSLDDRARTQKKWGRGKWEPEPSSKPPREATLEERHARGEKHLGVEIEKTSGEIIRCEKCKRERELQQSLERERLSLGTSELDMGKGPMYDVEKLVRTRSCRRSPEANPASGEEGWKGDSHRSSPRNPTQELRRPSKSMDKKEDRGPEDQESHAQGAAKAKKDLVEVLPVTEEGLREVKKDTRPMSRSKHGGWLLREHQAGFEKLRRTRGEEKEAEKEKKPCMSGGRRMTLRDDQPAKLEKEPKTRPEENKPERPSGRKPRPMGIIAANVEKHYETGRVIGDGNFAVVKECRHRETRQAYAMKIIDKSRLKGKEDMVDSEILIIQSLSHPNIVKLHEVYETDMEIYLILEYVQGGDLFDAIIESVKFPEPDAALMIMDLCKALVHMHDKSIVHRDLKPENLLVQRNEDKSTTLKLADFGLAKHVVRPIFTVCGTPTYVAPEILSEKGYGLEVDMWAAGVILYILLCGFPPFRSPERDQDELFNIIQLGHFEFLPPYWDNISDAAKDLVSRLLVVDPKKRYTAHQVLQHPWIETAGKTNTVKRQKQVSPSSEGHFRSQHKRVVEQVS
T1 sequence (P21802 22-821): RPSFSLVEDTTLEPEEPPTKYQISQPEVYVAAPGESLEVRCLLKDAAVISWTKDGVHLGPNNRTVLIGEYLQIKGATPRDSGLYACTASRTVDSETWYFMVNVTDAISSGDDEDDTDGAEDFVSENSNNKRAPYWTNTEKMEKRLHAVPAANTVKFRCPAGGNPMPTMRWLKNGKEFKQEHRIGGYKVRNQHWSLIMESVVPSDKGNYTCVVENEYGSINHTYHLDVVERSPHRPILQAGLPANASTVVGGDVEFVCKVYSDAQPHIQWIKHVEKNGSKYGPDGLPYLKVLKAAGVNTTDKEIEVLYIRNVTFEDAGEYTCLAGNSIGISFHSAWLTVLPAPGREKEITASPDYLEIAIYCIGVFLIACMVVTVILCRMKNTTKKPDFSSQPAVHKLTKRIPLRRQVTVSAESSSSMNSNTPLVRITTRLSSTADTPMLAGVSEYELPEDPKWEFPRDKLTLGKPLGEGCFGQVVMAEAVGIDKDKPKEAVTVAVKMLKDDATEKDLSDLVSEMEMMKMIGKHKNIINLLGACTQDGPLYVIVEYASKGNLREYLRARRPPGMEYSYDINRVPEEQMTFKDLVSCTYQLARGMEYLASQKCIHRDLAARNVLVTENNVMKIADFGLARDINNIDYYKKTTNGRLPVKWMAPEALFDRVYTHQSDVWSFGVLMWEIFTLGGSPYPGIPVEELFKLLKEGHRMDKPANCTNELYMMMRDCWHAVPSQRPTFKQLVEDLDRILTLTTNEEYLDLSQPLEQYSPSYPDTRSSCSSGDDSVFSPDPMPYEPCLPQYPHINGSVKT
T12 sequence (P07332 whole entry): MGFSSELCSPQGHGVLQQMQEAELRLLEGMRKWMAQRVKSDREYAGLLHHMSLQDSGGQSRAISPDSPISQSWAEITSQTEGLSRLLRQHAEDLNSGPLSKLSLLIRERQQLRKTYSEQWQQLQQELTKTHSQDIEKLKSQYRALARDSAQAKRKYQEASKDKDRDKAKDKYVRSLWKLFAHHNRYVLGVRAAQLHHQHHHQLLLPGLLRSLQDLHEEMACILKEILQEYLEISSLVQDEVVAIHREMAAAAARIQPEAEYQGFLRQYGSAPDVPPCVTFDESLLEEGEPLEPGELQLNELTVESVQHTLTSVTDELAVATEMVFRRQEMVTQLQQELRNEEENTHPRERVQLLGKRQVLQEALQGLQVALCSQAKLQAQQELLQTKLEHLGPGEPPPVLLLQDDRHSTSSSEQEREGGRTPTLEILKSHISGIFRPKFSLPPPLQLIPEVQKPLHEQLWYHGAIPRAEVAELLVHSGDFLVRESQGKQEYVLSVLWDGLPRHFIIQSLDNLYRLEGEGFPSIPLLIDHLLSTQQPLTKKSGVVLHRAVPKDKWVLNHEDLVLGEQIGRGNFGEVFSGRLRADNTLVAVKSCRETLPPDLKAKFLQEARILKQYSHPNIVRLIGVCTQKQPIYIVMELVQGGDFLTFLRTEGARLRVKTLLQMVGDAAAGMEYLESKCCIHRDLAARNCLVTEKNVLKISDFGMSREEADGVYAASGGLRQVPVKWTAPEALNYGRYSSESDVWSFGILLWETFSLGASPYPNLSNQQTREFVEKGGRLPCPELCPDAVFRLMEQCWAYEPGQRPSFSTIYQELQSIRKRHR
T20 sequence (O95835 whole entry): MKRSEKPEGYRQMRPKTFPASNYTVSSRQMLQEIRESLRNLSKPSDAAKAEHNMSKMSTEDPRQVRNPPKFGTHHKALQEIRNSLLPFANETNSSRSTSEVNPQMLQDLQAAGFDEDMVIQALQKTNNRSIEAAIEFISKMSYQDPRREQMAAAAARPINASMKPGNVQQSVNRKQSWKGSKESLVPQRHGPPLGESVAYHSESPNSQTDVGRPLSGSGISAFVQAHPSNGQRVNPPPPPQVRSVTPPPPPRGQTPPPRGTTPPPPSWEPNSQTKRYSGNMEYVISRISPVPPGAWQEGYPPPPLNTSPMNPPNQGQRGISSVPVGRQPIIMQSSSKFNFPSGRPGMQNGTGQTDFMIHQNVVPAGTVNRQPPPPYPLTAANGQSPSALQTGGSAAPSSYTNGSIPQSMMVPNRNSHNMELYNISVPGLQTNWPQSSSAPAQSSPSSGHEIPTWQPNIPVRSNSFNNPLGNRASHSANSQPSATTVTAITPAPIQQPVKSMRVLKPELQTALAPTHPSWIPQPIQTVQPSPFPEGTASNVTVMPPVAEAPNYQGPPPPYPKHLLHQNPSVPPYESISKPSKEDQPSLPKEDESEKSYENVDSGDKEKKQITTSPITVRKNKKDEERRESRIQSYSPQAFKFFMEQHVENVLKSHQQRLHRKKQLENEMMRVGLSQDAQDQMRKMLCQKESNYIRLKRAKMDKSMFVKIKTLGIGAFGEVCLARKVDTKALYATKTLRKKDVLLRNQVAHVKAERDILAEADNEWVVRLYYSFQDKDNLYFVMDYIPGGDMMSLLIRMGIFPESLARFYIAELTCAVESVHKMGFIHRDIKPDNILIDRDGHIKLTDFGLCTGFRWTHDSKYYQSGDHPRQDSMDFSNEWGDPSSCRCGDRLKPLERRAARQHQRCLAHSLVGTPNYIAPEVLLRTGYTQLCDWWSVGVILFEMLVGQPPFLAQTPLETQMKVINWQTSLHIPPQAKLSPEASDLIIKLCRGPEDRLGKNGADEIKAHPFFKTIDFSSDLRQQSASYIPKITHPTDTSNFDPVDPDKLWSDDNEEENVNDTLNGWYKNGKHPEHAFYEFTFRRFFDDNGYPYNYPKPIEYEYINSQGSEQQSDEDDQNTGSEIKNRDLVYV
T6 sequence (O00141 whole entry): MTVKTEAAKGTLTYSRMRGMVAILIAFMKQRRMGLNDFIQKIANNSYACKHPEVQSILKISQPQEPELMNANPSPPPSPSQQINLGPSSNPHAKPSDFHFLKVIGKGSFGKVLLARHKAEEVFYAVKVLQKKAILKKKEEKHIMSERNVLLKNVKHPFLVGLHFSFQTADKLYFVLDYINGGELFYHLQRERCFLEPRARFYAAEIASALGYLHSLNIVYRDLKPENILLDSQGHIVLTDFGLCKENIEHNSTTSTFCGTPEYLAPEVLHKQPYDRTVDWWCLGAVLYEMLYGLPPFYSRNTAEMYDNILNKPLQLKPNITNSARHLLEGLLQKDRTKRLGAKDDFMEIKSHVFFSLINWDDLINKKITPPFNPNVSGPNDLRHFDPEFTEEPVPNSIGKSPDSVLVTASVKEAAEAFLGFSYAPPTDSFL

Q: With `CCC(=O)Nc1cc(Nc2cc(NC3CC3)n3ncc(C#N)c3n2)c(F)cc1N1CCC[C@H](NC)C1` [Compound 2, (S)-N-(5-((3-cyano-7-(cyclopropylamino)pyrazolo[1,5-a]pyrimidin-5-yl)amino)-4-fluoro-2-(3-(methylamino)piperidin-1-yl)phenyl)propionamide] as the compound, how does the receptor occupancy at 10 µM (FGFR2) read?
A: The receptor occupancy at 10 µM was -2.9%.

Q: What about the receptor occupancy at 10 µM (TLK1) of the same compound?
A: Its receptor occupancy at 10 µM is -23.1%.

Q: What about the receptor occupancy at 10 µM (CDKL3) of the same compound?
A: The receptor occupancy at 10 µM was 19.4%.

Q: And the receptor occupancy at 10 µM (PAK4)?
A: The receptor occupancy at 10 µM was 4.5%.

Q: What about the receptor occupancy at 10 µM (MYLK4) of the same compound?
A: Its receptor occupancy at 10 µM is 38.5%.

Q: What about the receptor occupancy at 10 µM (SGK1) of the same compound?
A: The receptor occupancy at 10 µM was 1.5%.

Q: What about the receptor occupancy at 10 µM (CDK9 + K) of the same compound?
A: Its receptor occupancy at 10 µM is 19.8%.

Q: And the receptor occupancy at 10 µM (STK38L)?
A: The receptor occupancy at 10 µM was 4%.

Q: And the receptor occupancy at 10 µM (DYRK1B)?
A: Its receptor occupancy at 10 µM is 38.3%.

Q: What about the receptor occupancy at 10 µM (MAP3K4) of the same compound?
A: Its receptor occupancy at 10 µM is 4.9%.

Q: What about the receptor occupancy at 10 µM (MAP3K2) of the same compound?
A: The receptor occupancy at 10 µM was 13.8%.

Q: And the receptor occupancy at 10 µM (FES)?
A: Its receptor occupancy at 10 µM is 11.7%.

Q: What about the receptor occupancy at 10 µM (RET) of the same compound?
A: The receptor occupancy at 10 µM was 1.8%.

Q: And the receptor occupancy at 10 µM (MUSK)?
A: The receptor occupancy at 10 µM was -0.5%.

Q: What about the receptor occupancy at 10 µM (PHKG1; HEK293, PHKG1) of the same compound?
A: Its receptor occupancy at 10 µM is 55.3%.

Q: What about the “% occupancy at 10 μM” value (PHKG1; PHKG1, HEK293) of the same compound?
A: The value was 55%.

Q: What about the “% occupancy at 10 μM” value (DYRK1A; DYRK1A, HEK293) of the same compound?
A: The value was 71%.

Q: What about the receptor occupancy at 10 µM (DYRK1A; HEK293, DYRK1A) of the same compound?
A: The receptor occupancy at 10 µM was 71.2%.

Q: What about the receptor occupancy at 10 µM (MAPK4) of the same compound?
A: The receptor occupancy at 10 µM was 0.9%.

Q: And the receptor occupancy at 10 µM (DCLK3)?
A: The receptor occupancy at 10 µM was 44.7%.

Q: What about the receptor occupancy at 10 µM (TIE1) of the same compound?
A: The receptor occupancy at 10 µM was 20.6%.

Q: And the receptor occupancy at 10 µM (LATS1)?
A: Its receptor occupancy at 10 µM is -0.4%.

Q: And the receptor occupancy at 10 µM (MELK)?
A: Its receptor occupancy at 10 µM is 24.5%.

Q: What about the receptor occupancy at 10 µM (MAP4K3) of the same compound?
A: The receptor occupancy at 10 µM was 2.9%.

Q: And the receptor occupancy at 10 µM (NIM1K)?
A: Its receptor occupancy at 10 µM is -23.7%.

Q: And the receptor occupancy at 10 µM (IRAK4)?
A: Its receptor occupancy at 10 µM is 9.2%.

Q: And the receptor occupancy at 10 µM (MET)?
A: Its receptor occupancy at 10 µM is 12.3%.

Q: What about the “% occupancy at 10 μM” value (CLK4; CLK4, HEK293) of the same compound?
A: Its value is 74%.

Q: And the receptor occupancy at 10 µM (CLK4; HEK293, CLK4)?
A: The receptor occupancy at 10 µM was 73.8%.

Q: And the receptor occupancy at 10 µM (TLK2)?
A: The receptor occupancy at 10 µM was 4.6%.
